From patent US20070049564A1 (Wyeth, priority 2005, published 2007)
Values after ≈ are worked out from the molar mass of the structure shown. Where two headings read alike, the source gives them in different places.

How the values were obtained:
E. coli GC 2231 = experiment: MIC, broth microdilution; conditions: Escherichia coli
E. coli GC 2232 = experiment: MIC, broth microdilution; conditions: Escherichia coli
E. coli GC 2234 = experiment: MIC, broth microdilution; conditions: Escherichia coli
E. coli GC 2272 = experiment: MIC, broth microdilution; conditions: Escherichia coli
E. coli GC 4559 = experiment: MIC, broth microdilution; conditions: Escherichia coli
E. coli GC 4560 = experiment: MIC, broth microdilution; conditions: Escherichia coli
E. coli GC 6465 = experiment: MIC, broth microdilution; conditions: Escherichia coli
Procedure: Antimicrobial susceptibility testing. The in vitro activities of the antibiotics are determined by the broth microdilution method as recommended by the National Committee for Clinical Laboratory Standards (NCCLS) (1). Mueller-Hinton II broth (MHBII)(BBL Cockeysville, Md.) is the medium employed in the testing procedures. Microtiter plates containing serial dilutions of each antimicrobial agent are inoculated with each organism to yield the appropriate density (10^5 CFU/ml) in a 100 μl final volume. The plates are incubated for 18-22 hours at 35° C. in ambient air.
Representative compounds were first incubated in mouse serum for an hour prior to the in vitro testing against a panel of selected gram-positive and gram-negative bacteria strains. All compounds were also pre-incubated in water for an hour prior to testing as control.

E. coli GC 2203 = experiment: MIC, broth microdilution; conditions: Escherichia coli
P. aeruginosa GC 2214 = experiment: MIC, broth microdilution; conditions: Pseudomonas aeruginosa
S. aureus GC 1131 = experiment: MIC, broth microdilution; conditions: Staphylococcus aureus
S. aureus GC 6466 = experiment: MIC, broth microdilution; conditions: Staphylococcus aureus
S. aureus GC 6467 = experiment: MIC, broth microdilution; conditions: Staphylococcus aureus
S. aureus GC 4536 = experiment: MIC, broth microdilution; conditions: Staphylococcus aureus
S. aureus GC 2216 = experiment: MIC, broth microdilution; conditions: Staphylococcus aureus
S. epidermidis GC 4935 = experiment: MIC, broth microdilution; conditions: Staphylococcus epidermidis
E. faecalis GC 2267 = experiment: MIC, broth microdilution; conditions: Enterococcus faecalis
E. faecalis GC 2242 = experiment: MIC, broth microdilution; conditions: Enterococcus faecalis
S. pneumoniae* GC 4465 = experiment: MIC, broth microdilution; conditions: Streptococcus pneumoniae
S. pneumoniae+ GC 4465 = experiment: MIC, broth microdilution; conditions: Streptococcus pneumoniae
Staph. aureus Smith = experiment: In vivo activity (oral, iv; ED50) against Staph. aureus Smith in mice
Procedure: Representative examples of compounds of Formula I were tested for the oral efficacy using S. aureus Smith in mice.

[1] = read-out: MINIMAL INHIBITORY CONCENTRATION MIC, Human Serum
[2] = read-out: MINIMAL INHIBITORY CONCENTRATION MIC, Mouse Serum
[3] = read-out: MINIMAL INHIBITORY CONCENTRATION MIC, Water

## CCCCCCC(=O)OCOC(=O)N(CC(=O)Nc1cc(N(C)C)c2c(c1O)C(=O)C1=C(O)[C@]3(O)C(=O)C(C(N)=O)=C(O)[C@@H](N(C)C)[C@@H]3C[C@@H]1C2)C(C)(C)C [Example 48, ({[(2-{[(5aR,6aS,7S,10aS)-9-(aminocarbonyl)-4,7-bis(dimethylamino)-1,8,10a,11-tetrahydroxy-10,12-dioxo-5,5a,6,6a,7,10,10a,12-octahydrotetracen-2-yl]amino}-2-oxoethyl)(tert-butyl)amino]carbonyl}oxy)methyl heptanoate]
E. coli GC 2231; GC2231, read-out: MINIMAL INHIBITORY CONCENTRATION MIC, Human Serum
  MIC: 16 µg/mL (≈ 20.7 µM)
E. coli GC 2231; GC2231, read-out: MINIMAL INHIBITORY CONCENTRATION MIC, Mouse Serum
  MIC: 0.5 µg/mL (≈ 0.648 µM)
E. coli GC 2231; GC2231, read-out: MINIMAL INHIBITORY CONCENTRATION MIC, Water
  MIC: 64 µg/mL (≈ 82.9 µM)
E. coli GC 2232; GC2232, read-out: MINIMAL INHIBITORY CONCENTRATION MIC, Human Serum
  MIC: 16 µg/mL (≈ 20.7 µM)
E. coli GC 2232; GC2232, read-out: MINIMAL INHIBITORY CONCENTRATION MIC, Mouse Serum
  MIC: 0.25 µg/mL (≈ 0.324 µM)
E. coli GC 2232; GC2232, read-out: MINIMAL INHIBITORY CONCENTRATION MIC, Water
  MIC: 64 µg/mL (≈ 82.9 µM)
E. coli GC 2234; GC2234, read-out: MINIMAL INHIBITORY CONCENTRATION MIC, Human Serum
  MIC: 16 µg/mL (≈ 20.7 µM)
E. coli GC 2234; GC2234, read-out: MINIMAL INHIBITORY CONCENTRATION MIC, Mouse Serum
  MIC: 0.5 µg/mL (≈ 0.648 µM)
E. coli GC 2234; GC2234, read-out: MINIMAL INHIBITORY CONCENTRATION MIC, Water
  MIC: 64 µg/mL (≈ 82.9 µM)
E. coli GC 2272; GC2272, read-out: MINIMAL INHIBITORY CONCENTRATION MIC, Human Serum
  MIC: 8 µg/mL (≈ 10.4 µM)
E. coli GC 2272; GC2272, read-out: MINIMAL INHIBITORY CONCENTRATION MIC, Mouse Serum
  MIC: 0.25 µg/mL (≈ 0.324 µM)
E. coli GC 2272; GC2272, read-out: MINIMAL INHIBITORY CONCENTRATION MIC, Water
  MIC: 64 µg/mL (≈ 82.9 µM)
E. coli GC 4559; GC4559, read-out: MINIMAL INHIBITORY CONCENTRATION MIC, Human Serum
  MIC: 32 µg/mL (≈ 41.5 µM)
E. coli GC 4559; GC4559, read-out: MINIMAL INHIBITORY CONCENTRATION MIC, Mouse Serum
  MIC: 0.25 µg/mL (≈ 0.324 µM)
E. coli GC 4559; GC4559, read-out: MINIMAL INHIBITORY CONCENTRATION MIC, Water
  MIC: > 64 µg/mL
E. coli GC 4560; GC4560, read-out: MINIMAL INHIBITORY CONCENTRATION MIC, Human Serum
  MIC: 1 µg/mL (≈ 1.3 µM)
E. coli GC 4560; GC4560, read-out: MINIMAL INHIBITORY CONCENTRATION MIC, Mouse Serum
  MIC: 0.12 µg/mL (≈ 0.155 µM)
E. coli GC 4560; GC4560, read-out: MINIMAL INHIBITORY CONCENTRATION MIC, Water
  MIC: 2 µg/mL (≈ 2.59 µM)
E. coli GC 6465; GC6465, read-out: MINIMAL INHIBITORY CONCENTRATION MIC, Human Serum
  MIC: > 64 µg/mL
E. coli GC 6465; GC6465, read-out: MINIMAL INHIBITORY CONCENTRATION MIC, Mouse Serum
  MIC: 2 µg/mL (≈ 2.59 µM)
E. coli GC 6465; GC6465, read-out: MINIMAL INHIBITORY CONCENTRATION MIC, Water
  MIC: > 64 µg/mL
E. coli GC 2203; GC2203, read-out: MINIMAL INHIBITORY CONCENTRATION MIC, Human Serum
  MIC: 16 µg/mL (≈ 20.7 µM)
E. coli GC 2203; GC2203, read-out: MINIMAL INHIBITORY CONCENTRATION MIC, Mouse Serum
  MIC: 0.25 µg/mL (≈ 0.324 µM)
E. coli GC 2203; GC2203, read-out: MINIMAL INHIBITORY CONCENTRATION MIC, Water
  MIC: 64 µg/mL (≈ 82.9 µM)
P. aeruginosa GC 2214; GC2214, read-out: MINIMAL INHIBITORY CONCENTRATION MIC, Human Serum
  MIC: > 64 µg/mL
P. aeruginosa GC 2214; GC2214, read-out: MINIMAL INHIBITORY CONCENTRATION MIC, Mouse Serum
  MIC: 16 µg/mL (≈ 20.7 µM)
P. aeruginosa GC 2214; GC2214, read-out: MINIMAL INHIBITORY CONCENTRATION MIC, Water
  MIC: > 64 µg/mL
S. aureus GC 1131; GC1131, read-out: MINIMAL INHIBITORY CONCENTRATION MIC, Human Serum
  MIC: 0.25 µg/mL (≈ 0.324 µM)
S. aureus GC 1131; GC1131, read-out: MINIMAL INHIBITORY CONCENTRATION MIC, Mouse Serum
  MIC: 0.25 µg/mL (≈ 0.324 µM)
S. aureus GC 1131; GC1131, read-out: MINIMAL INHIBITORY CONCENTRATION MIC, Water
  MIC: 0.25 µg/mL (≈ 0.324 µM)
S. aureus GC 6466; GC6466, read-out: MINIMAL INHIBITORY CONCENTRATION MIC, Human Serum
  MIC: 0.12 µg/mL (≈ 0.155 µM)
S. aureus GC 6466; GC6466, read-out: MINIMAL INHIBITORY CONCENTRATION MIC, Mouse Serum
  MIC: 0.12 µg/mL (≈ 0.155 µM)
S. aureus GC 6466; GC6466, read-out: MINIMAL INHIBITORY CONCENTRATION MIC, Water
  MIC: 0.12 µg/mL (≈ 0.155 µM)
S. aureus GC 6467; GC6467, read-out: MINIMAL INHIBITORY CONCENTRATION MIC, Human Serum
  MIC: 0.5 µg/mL (≈ 0.648 µM)
S. aureus GC 6467; GC6467, read-out: MINIMAL INHIBITORY CONCENTRATION MIC, Mouse Serum
  MIC: 1 µg/mL (≈ 1.3 µM)
S. aureus GC 6467; GC6467, read-out: MINIMAL INHIBITORY CONCENTRATION MIC, Water
  MIC: 2 µg/mL (≈ 2.59 µM)
S. aureus GC 4536; GC4536, read-out: MINIMAL INHIBITORY CONCENTRATION MIC, Human Serum
  MIC: 0.25 µg/mL (≈ 0.324 µM)
S. aureus GC 4536; GC4536, read-out: MINIMAL INHIBITORY CONCENTRATION MIC, Mouse Serum
  MIC: 0.25 µg/mL (≈ 0.324 µM)
S. aureus GC 4536; GC4536, read-out: MINIMAL INHIBITORY CONCENTRATION MIC, Water
  MIC: 0.25 µg/mL (≈ 0.324 µM)
S. aureus GC 2216; GC2216, read-out: MINIMAL INHIBITORY CONCENTRATION MIC, Human Serum
  MIC: 0.25 µg/mL (≈ 0.324 µM)
S. aureus GC 2216; GC2216, read-out: MINIMAL INHIBITORY CONCENTRATION MIC, Mouse Serum
  MIC: 0.25 µg/mL (≈ 0.324 µM)
S. aureus GC 2216; GC2216, read-out: MINIMAL INHIBITORY CONCENTRATION MIC, Water
  MIC: 0.5 µg/mL (≈ 0.648 µM)
S. epidermidis GC 4935; GC4935, read-out: MINIMAL INHIBITORY CONCENTRATION MIC, Human Serum
  MIC: 0.5 µg/mL (≈ 0.648 µM)
S. epidermidis GC 4935; GC4935, read-out: MINIMAL INHIBITORY CONCENTRATION MIC, Mouse Serum
  MIC: 0.5 µg/mL (≈ 0.648 µM)
S. epidermidis GC 4935; GC4935, read-out: MINIMAL INHIBITORY CONCENTRATION MIC, Water
  MIC: 1 µg/mL (≈ 1.3 µM)
E. faecalis GC 2267; GC2267, read-out: MINIMAL INHIBITORY CONCENTRATION MIC, Human Serum
  MIC: 1 µg/mL (≈ 1.3 µM)
E. faecalis GC 2267; GC2267, read-out: MINIMAL INHIBITORY CONCENTRATION MIC, Mouse Serum
  MIC: 0.5 µg/mL (≈ 0.648 µM)
E. faecalis GC 2267; GC2267, read-out: MINIMAL INHIBITORY CONCENTRATION MIC, Water
  MIC: 2 µg/mL (≈ 2.59 µM)
E. faecalis GC 2242; GC2242, read-out: MINIMAL INHIBITORY CONCENTRATION MIC, Human Serum
  MIC: 1 µg/mL (≈ 1.3 µM)
E. faecalis GC 2242; GC2242, read-out: MINIMAL INHIBITORY CONCENTRATION MIC, Mouse Serum
  MIC: 0.5 µg/mL (≈ 0.648 µM)
E. faecalis GC 2242; GC2242, read-out: MINIMAL INHIBITORY CONCENTRATION MIC, Water
  MIC: 1 µg/mL (≈ 1.3 µM)
S. pneumoniae* GC 4465; [1]
  MIC: 0.12 µg/mL (≈ 0.155 µM)
S. pneumoniae* GC 4465; [2]
  MIC: 0.12 µg/mL (≈ 0.155 µM)
S. pneumoniae* GC 4465; [3]
  MIC: 0.12 µg/mL (≈ 0.155 µM)
S. pneumoniae+ GC 4465; [1]
  MIC: 0.25 µg/mL (≈ 0.324 µM)
S. pneumoniae+ GC 4465; [2]
  MIC: 0.25 µg/mL (≈ 0.324 µM)
S. pneumoniae+ GC 4465; [3]
  MIC: 0.25 µg/mL (≈ 0.324 µM)
Staph. aureus Smith; Staphylococcus aureus, in Mus musculus, iv, read-out: ED50 SIV (Staph aureus Smith)
  ED50: 1.1 mg/kg
Staph. aureus Smith; Staphylococcus aureus, in Mus musculus, po, read-out: ED50 SOD (Staph aureus Smith)
  ED50: 10.1 mg/kg
Staph. aureus Smith; Staphylococcus aureus, in Mus musculus, po, read-out: ED50 Staph Smith SOD
  ED50: 10.1 mg/kg
Staph. aureus Smith; iv, read-out: ED50 Staph Smith SIV
  ED50: 1.1 mg/kg
